# Reference: publication PMC12019328, “Discovery of an ApoE4-targeted small-molecule SirT1 enhancer for the treatment of Alzheimer’s disease” (Scientific Reports, 2025)
# Columns and labels:
# [1] = test system: PRMT5 mRNA in Kelly cells; assay: PRMT5 mRNA in Kelly neuroblastoma cells; assay type: cell-based, human; details: 5 µM, 24 h, vs DMSO
# Description: Human neuroblastoma ‘Kelly’ cells (genotype APOE3/APOE4) were plated in 96-well plates at 50K cells per well and were grown overnight in RPMI 1640 supplemented with 2 mM Glutamine, 10% FBS and 1% Pen-Strep. Cells were treated with 5 µM DDL-214, -218, or -219; or DMSO vehicle (n = 8 per compound). Twenty-four hours later, medium was removed, cells washed and lysed as described above for N2a-E4 cells.
# Total RNA was isolated from cells or brain tissue (Qiagen RNEasy kit). Total RNA (0.5–1.0 µg) mRNA was then converted to cDNA (SuperScript™ III First-Strand Synthesis SuperMix kit; Thermo Fisher), and gene mRNA levels were measured using a gene-specific qRT-PCR Taqman assays (Thermo Fisher). Gene mRNA levels were normalized to GAPDH mRNA levels measured either in the same cDNA sample or in the same qPCR reaction using multiplexing of gene-of-interest/VIC and GAPDH/FAM, normalized by the delta-delta-Ct method.
# SirT1 promoter = assay: ChIP analysis of SirT1 promoter occupancy in Kelly cells; assay type: cell-based, human; details: vs DMSO
# Description: Correlations between gene mRNAs in DDL-214, -218, and -219-treated Kelly cells
# As described in the main manuscript, human Kelly neuroblastoma cells were treated with
# racemate DDL-214, and enantiomers DDL-218 and -219. Levels of PRMT5, NFYb, SirT1, and
# PPP2r5e mRNAs were then determined. The correlations between these gene mRNAs for all
# Data points are graphed by
# treatment in Figure S6D-F and their significant correlation (Pearson correlation 0.914) in
# bioinformatic analysis of gene co-expression of 2300 human brain RNAseq samples performed
# at Genefriends.org (Raina, et al. (2022) GeneFriends: gene co-expression databases and tools
# for humans and model organisms, Nucleic Acids Research, 2022;
# Figure S6. Correlation of gene mRNA levels in DDL-treated Kelly cells. All data points are shown for (A)
# PRMT5 vs. NFYb, (B) SirT1 vs. PRMT5, and (C) PPP2r5E vs. SirT1. R2 values are shown on the upper
# right of each panel. (D-F) The same data with treatment (DDL-214, -218, or -219) indicated by symbols
# shown below panel (E). The statistical 'r' value and significance determined by Pearsons Correlation
# ChIP assay for SirT1 gene promoter occupancy by ApoE4 and RNA polymerase […]
# promoter by ApoE4 or RNA Polymerase (RNAP) was determined using an EZ-ChIP kit (Millipore […]
# DNA was purified. The immunoprecipitated DNA was measured for the level of immuno-captured […]
# [2] = molecular target: hERG (human Ether-a-go-go-Related Gene) (Homo sapiens, UniProt Q12809); assay: hERG
# Sequence of hERG (human Ether-a-go-go-Related Gene) (Q12809 whole entry): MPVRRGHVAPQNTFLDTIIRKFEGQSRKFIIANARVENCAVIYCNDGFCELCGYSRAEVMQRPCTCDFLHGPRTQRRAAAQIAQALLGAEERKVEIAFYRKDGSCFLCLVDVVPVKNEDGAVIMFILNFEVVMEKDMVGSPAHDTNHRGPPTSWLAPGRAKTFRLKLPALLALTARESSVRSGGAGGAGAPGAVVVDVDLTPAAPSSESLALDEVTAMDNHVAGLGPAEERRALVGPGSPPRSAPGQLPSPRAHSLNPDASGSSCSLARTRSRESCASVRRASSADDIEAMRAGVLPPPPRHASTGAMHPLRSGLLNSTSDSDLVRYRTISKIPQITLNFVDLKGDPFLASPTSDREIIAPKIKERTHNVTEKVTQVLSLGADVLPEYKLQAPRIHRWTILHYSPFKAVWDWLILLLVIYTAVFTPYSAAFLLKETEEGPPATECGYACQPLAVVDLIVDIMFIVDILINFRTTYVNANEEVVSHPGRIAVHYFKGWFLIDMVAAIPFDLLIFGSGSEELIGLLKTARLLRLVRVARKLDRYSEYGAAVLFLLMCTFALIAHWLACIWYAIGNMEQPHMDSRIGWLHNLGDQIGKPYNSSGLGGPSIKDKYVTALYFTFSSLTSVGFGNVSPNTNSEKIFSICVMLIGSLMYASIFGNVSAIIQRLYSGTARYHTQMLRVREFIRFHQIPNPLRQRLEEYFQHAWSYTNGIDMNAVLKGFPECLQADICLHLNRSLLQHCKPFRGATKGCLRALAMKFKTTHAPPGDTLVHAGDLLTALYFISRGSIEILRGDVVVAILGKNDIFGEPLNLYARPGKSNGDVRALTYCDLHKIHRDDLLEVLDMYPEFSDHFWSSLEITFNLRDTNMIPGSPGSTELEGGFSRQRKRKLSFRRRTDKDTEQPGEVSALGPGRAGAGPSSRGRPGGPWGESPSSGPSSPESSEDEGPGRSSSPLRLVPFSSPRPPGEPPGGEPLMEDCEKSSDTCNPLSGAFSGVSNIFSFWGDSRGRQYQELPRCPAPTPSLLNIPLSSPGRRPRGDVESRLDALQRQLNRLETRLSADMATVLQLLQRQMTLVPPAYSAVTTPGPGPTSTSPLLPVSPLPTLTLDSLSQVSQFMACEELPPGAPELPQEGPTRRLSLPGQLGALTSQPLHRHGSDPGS
compound,measurement,setting,value
CC(N)C(=O)OC(C)(C)Cc1ccncc1 (stereo not shown) [DDL-218],PRMT5 expression (mRNA),[1],significantly increases PRMT5 expression
same,ApoE4 binding to SirT1 promoter,SirT1 promoter,"lower, but the effect was not significant"
same,RNAP occupancy of SirT1 promoter,SirT1 promoter,increased
same,EC50,[2],> 10 µM
